Assay results: PubChem BioAssay (NCI)
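Cells were grown in 96-well plates and exposed to each compound for 48 hours at five concentrations; endpoints were interpolated linearly between bracketing concentrations, or set to the highest concentration if not reached. TGI is the concentration that stops growth completely.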

How the values were obtained:
Assay in all cases: NCI tumour cell line growth inhibition, 48 h
HT29 colon = system: HT29 colon
CAKI-1 renal = system: CAKI-1 renal
HCC-2998 colon = system: HCC-2998 colon
SF-295 CNS = system: SF-295 CNS
OVCAR-4 ovarian = system: OVCAR-4 ovarian
OVCAR-5 ovarian = system: OVCAR-5 ovarian
HOP-62 NSCLC = system: HOP-62 NSCLC
786-0 renal = system: 786-0 renal
SK-OV-3 ovarian = system: SK-OV-3 ovarian
UACC-62 melanoma = system: UACC-62 melanoma
UO-31 renal = system: UO-31 renal
TK-10 renal = system: TK-10 renal
DU-145 prostate = system: DU-145 prostate
K-562 leukemia = system: K-562 leukemia
SF-268 CNS = system: SF-268 CNS
HCT-116 colon = system: HCT-116 colon
HS 578T breast = system: HS 578T breast
OVCAR-8 ovarian = system: OVCAR-8 ovarian
SW-620 colon = system: SW-620 colon
MOLT-4 leukemia = system: MOLT-4 leukemia
SK-MEL-5 melanoma = system: SK-MEL-5 melanoma
T-47D breast = system: T-47D breast
ACHN renal = system: ACHN renal
MDA-MB-435 = system: MDA-MB-435
LOX IMVI melanoma = system: LOX IMVI melanoma
NCI-H23 lung = system: NCI-H23 lung
NCI-H522 lung = system: NCI-H522 lung
SN12C renal = system: SN12C renal
A498 renal = system: A498 renal
UACC-257 melanoma = system: UACC-257 melanoma
HCT-15 colon = system: HCT-15 colon
HOP-92 NSCLC = system: HOP-92 NSCLC
RXF 393 renal = system: RXF 393 renal
MDA-N = system: MDA-N
SNB-75 CNS = system: SNB-75 CNS
COLO 205 colon = system: COLO 205 colon
HL-60(TB) leukemia = system: HL-60(TB) leukemia
NCI-H226 lung = system: NCI-H226 lung
NCI-H460 lung = system: NCI-H460 lung
MCF7 breast = system: MCF7 breast
IGROV1 ovarian = system: IGROV1 ovarian
OVCAR-3 ovarian = system: OVCAR-3 ovarian
KM12 colon = system: KM12 colon
SF-539 CNS = system: SF-539 CNS
EKVX NSCLC = system: EKVX NSCLC
CCRF-CEM leukemia = system: CCRF-CEM leukemia
M14 melanoma = system: M14 melanoma
RPMI-8226 leukemia = system: RPMI-8226 leukemia
NCI/ADR-RES ovarian = system: NCI/ADR-RES ovarian
MDA-MB-231 breast = system: MDA-MB-231 breast
A549 NSCLC = system: A549 NSCLC
MALME-3M melanoma = system: MALME-3M melanoma
U251 CNS = system: U251 CNS
SK-MEL-28 melanoma = system: SK-MEL-28 melanoma
SR leukemia = system: SR leukemia
PC-3 prostate = system: PC-3 prostate
SK-MEL-2 melanoma = system: SK-MEL-2 melanoma

## O=C1C2CCCC2N1Cc1ccccc1 (stereo not given)
HT29 colon
  TGI: > 100 µM
CAKI-1 renal
  TGI: > 100 µM
HCC-2998 colon
  TGI: > 100 µM
SF-295 CNS
  TGI: > 100 µM
OVCAR-4 ovarian
  TGI: > 100 µM
OVCAR-5 ovarian
  TGI: > 100 µM
HOP-62 NSCLC
  TGI: > 100 µM
786-0 renal
  TGI: > 100 µM
SK-OV-3 ovarian
  TGI: > 100 µM
UACC-62 melanoma
  TGI: > 100 µM
UO-31 renal
  TGI: 28.5 µM
TK-10 renal
  TGI: > 100 µM
DU-145 prostate
  TGI: > 100 µM
K-562 leukemia
  TGI: > 100 µM
SF-268 CNS
  TGI: > 100 µM
HCT-116 colon
  TGI: > 100 µM
HS 578T breast
  TGI: > 100 µM
OVCAR-8 ovarian
  TGI: > 100 µM
SW-620 colon
  TGI: > 100 µM
MOLT-4 leukemia
  TGI: > 100 µM
SK-MEL-5 melanoma
  TGI: > 100 µM
T-47D breast
  TGI: > 100 µM
ACHN renal
  TGI: > 100 µM
MDA-MB-435
  TGI: > 100 µM
LOX IMVI melanoma
  TGI: > 100 µM
NCI-H23 lung
  TGI: > 100 µM
NCI-H522 lung
  TGI: > 100 µM
SN12C renal
  TGI: > 100 µM
A498 renal
  TGI: > 100 µM
UACC-257 melanoma
  TGI: > 100 µM
HCT-15 colon
  TGI: > 100 µM
HOP-92 NSCLC
  TGI: > 100 µM
RXF 393 renal
  TGI: > 100 µM
MDA-N
  TGI: > 100 µM
SNB-75 CNS
  TGI: > 100 µM
COLO 205 colon
  TGI: > 100 µM
HL-60(TB) leukemia
  TGI: > 100 µM
NCI-H226 lung
  TGI: > 100 µM
NCI-H460 lung
  TGI: > 100 µM
MCF7 breast
  TGI: > 100 µM
IGROV1 ovarian
  TGI: > 100 µM
OVCAR-3 ovarian
  TGI: > 100 µM
KM12 colon
  TGI: > 100 µM
SF-539 CNS
  TGI: > 100 µM
EKVX NSCLC
  TGI: > 100 µM
CCRF-CEM leukemia
  TGI: > 100 µM
M14 melanoma
  TGI: 26.9 µM
RPMI-8226 leukemia
  TGI: > 100 µM
NCI/ADR-RES ovarian
  TGI: > 100 µM

## COc1cc2c(c(OC)c1OC)-c1ccc(OC)c(=O)cc1C(NC(=O)CCCCCNc1ccc(N=[N+]=[N-])cc1[N+](=O)[O-])CC2 (stereo not given)
HT29 colon
  TGI: < 0.01 µM
CAKI-1 renal
  TGI: 18.4 µM
MDA-MB-231 breast
  TGI: < 0.01 µM
SF-295 CNS
  TGI: 12.5 µM
OVCAR-4 ovarian
  TGI: 16.2 µM
OVCAR-5 ovarian
  TGI: 31.4 µM
HOP-62 NSCLC
  TGI: > 31.6 µM
SK-OV-3 ovarian
  TGI: 7.17 µM
A549 NSCLC
  TGI: 5.8 µM
UACC-62 melanoma
  TGI: < 0.01 µM
TK-10 renal
  TGI: 57.8 µM
DU-145 prostate
  TGI: 0.354 µM
SF-268 CNS
  TGI: 10.3 µM
HCT-116 colon
  TGI: < 0.0105 µM
HS 578T breast
  TGI: 4.67 µM
OVCAR-8 ovarian
  TGI: > 100 µM
MALME-3M melanoma
  TGI: 26.1 µM
SW-620 colon
  TGI: > 31.6 µM
MOLT-4 leukemia
  TGI: < 0.01 µM
SK-MEL-5 melanoma
  TGI: < 0.01 µM
T-47D breast
  TGI: > 31.6 µM
ACHN renal
  TGI: 24.4 µM
MDA-MB-435
  TGI: < 0.01 µM
LOX IMVI melanoma
  TGI: 9.55 µM
NCI-H23 lung
  TGI: > 100 µM
SN12C renal
  TGI: 11.5 µM
HCT-15 colon
  TGI: 0.245 µM
RXF 393 renal
  TGI: 6.67 µM
U251 CNS
  TGI: 11.1 µM
MDA-N
  TGI: < 0.01 µM
COLO 205 colon
  TGI: < 0.01 µM
HL-60(TB) leukemia
  TGI: < 0.01 µM
NCI-H226 lung
  TGI: < 0.01 µM
NCI-H460 lung
  TGI: < 0.0139 µM
MCF7 breast
  TGI: > 21.6 µM
SK-MEL-28 melanoma
  TGI: 25 µM
IGROV1 ovarian
  TGI: > 31.6 µM
OVCAR-3 ovarian
  TGI: < 0.0152 µM
SR leukemia
  TGI: < 0.01 µM
SF-539 CNS
  TGI: < 0.01 µM
EKVX NSCLC
  TGI: 0.644 µM
PC-3 prostate
  TGI: < 0.01 µM
M14 melanoma
  TGI: 5.44 µM
RPMI-8226 leukemia
  TGI: < 0.01 µM
NCI/ADR-RES ovarian
  TGI: 5.62 µM
SK-MEL-2 melanoma
  TGI: < 0.01 µM
